Measurements from patent publication EP0863156A1, “Peptides useful as somatostatin antagonists” (American Cyanamid Company, priority 1997, dated 1998).

Key:
[1] = biological target: SRIF receptors expressed in S. cerevisiae (yeast) LY364 cells; experiment: cell-based or functional assay
SRIF receptors = biological target: T1, SRIF receptors (Rattus norvegicus, UniProt P30680); experiment: Yeast bioassay for SRIF antagonist activity (zone of growth inhibition of LY364 cells growing in response to SRIF); assay type: cell-based; settings: Table III; diameter of zone of growth inhibition; 10 µL of 5 mg/mL on filter disk; S-14 10 nM
T1 construct: expressed in transfected cells; host or cells: Saccharomyces cerevisiae strain LY364
Experimental: Agar plates containing LY364 cells that are growing in the presence of added SRIF are the basis for a sensitive SRIF antagonist assay, whereby zones of growth inhibition result from the addition of SRIF antagonists to the surface of the agar plate (see L.A. Price, et al., Molecular and Cellular Biology, 15, 6188-6195, 1995, incorporated herein by reference).
In this assay, LY364 cells are grown overnight in 2 mL of synthetic complete(SC) medium (3.4 g/L YNB without amino acids and ammonium sulfate, 10 g/L ammonium sulfate and 1.4 g/L CSM-ura-trp) with glucose (2%) and without uracil and tryptophan. These cells are washed and cultured for 4 to 8 hours in 5 mL of SC medium with lactate (3%) and without uracil and tryptophan, and finally grown overnight in 5 mL of SC medium with galactose (2%) and without uracil and tryptophan. Molten (50° C) SC agar medium with galactose (2%) and without uracil, tryptophan and histidine is adjusted to pH 6.8 with KOH, mixed with 2 x 10^4 cells/mL and SRIF (S-14, 10 nM) and poured into square (20 x 20 cm) petri dishes. Sterile filter disks are placed on the surface of the agar, and saturated with 10 µL of water or DMSO containing 5 mg/mL test peptides. After three days, the plates display a uniform cloudy background of […] cells growing in response to the added SRIF. […] This zone is quantified by measuring its diameter (mm), which varies according to the potency of the SRIF antagonist. Those peptides or mixtures of peptides displaying the largest zones of inhibition are further characterized.
Values are compared among samples in the same experiment, as the degree of yeast growth varies somewhat from assay to assay. For the first five sample types, in which progressively less complex mixtures of peptides are found, this assay is the primary determining factor in choosing which samples form the basis of subsequent syntheses.
Plates are read after 3 days. Samples shown in Table I in bold type are chosen for further synthesis. In Table I, all amino acids are D-amino acids and dashes represent undefined amino acid residues.

SSTR2 = SSTR2 (Rattus norvegicus, UniProt P30680); experiment: cAMP accumulation in forskolin-stimulated GH4C1/SSTR2 cells (SPA radioimmunoassay); assay type: cell-based; design: expressed in transfected cells; host or cells: GH4C1 rat pituitary tumor cells; settings: test peptide 2 µM; percent reversal of SSTR2 activation by SRIF or MK678; 0% = forskolin plus agonist, 100% = forskolin alone
Chain of SSTR2 (P30680 whole entry): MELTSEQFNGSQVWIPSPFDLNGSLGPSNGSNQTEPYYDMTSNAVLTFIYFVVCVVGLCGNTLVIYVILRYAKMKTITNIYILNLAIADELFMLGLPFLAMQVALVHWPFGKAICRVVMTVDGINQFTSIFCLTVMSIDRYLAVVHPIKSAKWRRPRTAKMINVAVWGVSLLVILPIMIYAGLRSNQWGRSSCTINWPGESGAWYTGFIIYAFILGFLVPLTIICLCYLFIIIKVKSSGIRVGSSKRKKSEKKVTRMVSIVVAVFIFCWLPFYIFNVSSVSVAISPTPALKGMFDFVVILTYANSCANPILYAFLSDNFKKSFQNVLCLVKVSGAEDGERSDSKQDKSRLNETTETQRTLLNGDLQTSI
Experimental: This is the basis of a common assay for SRIF agonists and antagonists, whereby SRIF agonists reduce artificially stimulated cAMP levels, and SRIF antagonists reverse the effect of SRIF. […] This increases the response to SRIF and provides a greater dynamic range for the measurement of SRIF antagonist activity.
Stimulation of cells. GH4C1/SSTR2 cells, grown in DMEM with 10% bovine serum, are released from a tissue culture dish by incubation for several minutes at 37° C with PBS containing 0.5 mM EDTA. Cells are washed in induction buffer (PBS containing 100 µM IBMX (an inhibitor of cAMP breakdown) and 2 mM CaCl2) at room temperature, and resuspended at 2 x 10^6/mL in induction buffer. Into each well of a 96-well tray are added 50 µL of a 2 X concentration of stimulants in induction buffer. […] To initiate stimulation of the cells, 50 µL (100,000) cells are added to each well, mixed by shaking 10 seconds on a plate shaker and placed at 37° C for 15 minutes. Stimulation is arrested and cells are lysed by adding 15 µL 0.33 N HCI to each well and incubating the plate for 30 minutes at 37° C. Samples are neutralized by addition of 15 µL 0.25 N NaOH/50 mM Hepes pH 7.4. Baseline cAMP levels are determined in samples with no added forskolin or SRIF, and each treatment is performed in triplicate.
cAMP assay. To measure accumulated cAMP in the samples, a radioimmunoassay is employed. The scintillation proximity assay (SPA, Amersham, Arlington Heights, IL) allows the rapid measurement of ^125I cAMP bound to a specific antibody without separating bound radioligand from free radioligand. Each of the following reagents (15 µL) are added per well in a 96-well tray: supernatants from the cell stimulation; ^125I cAMP; SPA beads conjugated to monkey anti-rabbit IgG antibodies; and rabbit anti-cAMP antibodies. For the standard curve, known amounts of cAMP (0.2 - 12.8 pmol) are added in place of cell supernatants. The 96-well tray is sealed, shaken at room temperature overnight and measured for bound radioligand in a MicroBeta liquid scintillation counter (Wallac, Gaithersburg. MD).
The intrinsic activity of an SRIF antagonist is the percent reversal of the SSTR2 activation by SRIF or MK678, wherein 0% is defined by cAMP levels in samples treated with forskolin plus SRIF or MK678 and 100% is the cAMP level measured after treatment with forskolin alone. Therefore, increased intrinsic activity of a test compound indicates increased antagonist activity of said test compound.
An inverse agonist is a compound that is not only a pure antagonist (i.e. lacking agonist activity), but also blocks the constitutive activity of an unoccupied receptor. One indication of inverse agonist activity is the ability of a SRIF antagonist to increase cAMP levels in the absence of added SRIF.

T1 sequence (P30680 whole entry): as above

Row | Substance | Inhibition Zone (mm), yeast bioassay for SRIF antagonist activity (LY364 cells growing on 10 nM S-14; 10 µL of 5 mg/mL peptide on a filter disk) [1] [mm] | Yeast Assay (mm) (SRIF receptors) | cAMP Assay Intrinsic activity (SSTR2) [%]
1 | Ac-His-Phe-Ile-Arg-Trp-Ala-NH2 (all D), Seq Id No. 22 (peptide) | 15 |  | 
2 | Ac-His-Phe-Ile-Arg-Trp-Asn-NH2 (all D), Seq Id No. 23 (peptide) | 15 |  | 
3 | Ac-His-Phe-Ile-Arg-Trp-Gln-NH2 (all D), Seq Id No. 26 (peptide) | 16 |  | 
4 | Ac-His-Phe-Ile-Arg-Trp-Gly-NH2 (D-amino acids) (peptide) | 13 |  | 
5 | Ac-His-Phe-Ile-Arg-Trp-Ile-NH2 (all D), Seq Id No. 21 (peptide) | 16 |  | 
6 | Ac-His-Phe-Ile-Arg-Trp-Leu-NH2 (all D), Seq Id No. 18 (peptide) | 15 |  | 
7 | h-F-i-r-w-f [Peptide 14] |  | 16 mm | 29.6
8 | h-a-i-r-w-f [Peptide 3] |  | none | 9.33
9 | h-f-I-r-w-f [Peptide 15] |  | 9 mm | 9.71
10 | h-f-a-r-w-f [Peptide 4] |  | 16 mm | 41.8
11 | h-f-i-R-w-f [Peptide 16] |  | 17 mm | 43.6
12 | h-f-i-a-w-f [Peptide 5] |  | 10 mm | 44.1
13 | h-f-i-k-w-f [Peptide 27] |  | 20.5 mm | 71.2
14 | h-f-i-r-W-f [Peptide 17] |  | 19 mm | 50.2
15 | h-f-i-r-a-f [Peptide 6] |  | 9 mm | 13.4
16 | h-f-i-r-f [Peptide 11] |  | 14 mm | 12.1
17 | h-f-i-r-w [Peptide 12] |  | 16 mm | 29.1
18 | h-f-i-r-w-F [Peptide 18] |  | 19 mm | 46.7
19 | h-f-i-w-f [Peptide 10] |  | 14 mm | 25.3
20 | h-f-r-w-f [Peptide 9] |  | 9 mm | 6.36
21 | h-f-v-r-w-f [Peptide 28] |  | 20 mm | 71.2
22 | h-i-r-w-f [Peptide 8] |  | none | 2.76
23 | h-w-i-r-w-f [Peptide 21] |  | 18 mm | 54.7
24 | h-y-i-r-w-f [Peptide 20] |  | 18 mm | 56.5
25 | k-y-i-r-w-f [Peptide 19] |  | 9 mm | 33.3
26 | w-h-i-r-w-f [Peptide 22] |  | none | 27.4
27 | w-y-i-r-w-f [Peptide 23] |  | none | 5.64
